Here are results for seven compounds from patent US20140045744A1, “CULTURED COLLECTION OF GUT MICROBIAL COMMUNITY” (THE WASHINGTON UNIVERSITY, priority 2011, published 2014).

By MIC is commonly meant the lowest concentration that inhibits growth of the organism.

For this assay, the system named is E. coli MegaX DH10B T1R cells. The class given is cell-based, Escherichia coli. The note with it: for MIC: antibiotics used in functional metagenomic selections of E. coli libraries. From the text: To compare further the functions represented in the complete and cultured microbiota independent of annotation, antibiotic-resistance genes were captured from their microbiomes in expression vectors in Escherichia coli. Each E. coli library contained ˜1 GB of 1.5- to 4-kB fragments of microbiome DNA subcloned into an expression vector and was screened against a panel of 15 antibiotics and clinically relevant antibiotic combinations (Table 3). Genes encoding resistance to the same 14 antibiotics were captured in libraries prepared from complete and cultured fecal samples (FIG. 3G and Table 4). In one example, a screen for DNA fragments that confer resistance to the aminoglycoside amikacin produced candidate genes from the microbiomes of both complete and cultured microbial communities from Donor 1 but not from Donor 2. Two genes conferring amikacin resistance (either the 16S rRNA methylase rmtD or the aminoglycoside phosphotransferase aphA-3) were identified in 70% of the DNA fragments captured in selections for this phenotype.
DNA fragments from complete and cultured communities were cloned into an expression vector, electroporated into Escherichia coli, and screened for their ability to confer resistance to 15 different antibiotics. To this end, 10 μg of DNA purified from the two human donors' fecal microbiota, from the derived cultured communities, plus pooled contents of the arrayed strain collection were sheared to 1.5- to 4-kB fragments (Bioruptor XL), followed by size selection (1% agarose gel electrophoresis). Sheared DNA then was endrepaired (Epicentre Endlt Kit), column-purified (Qiagen Qia-Quick PCR Purification Kit), and concentrated in a vacuum evaporator (SpeedVac). […] Approximately 500 ng of the DNA fragments were ligated to 100 ng of the linearized vector in an overnight ligation reaction (Epicentre FastLink Ligation Kit). The ligation reaction was desalted by dialysis in double-distilled H2O and electroporated into E. coli MegaX DH10B T1R cells (Invitrogen). After 1 h of recovery, a small (1 μL) aliquot of the library was titered with serial dilutions onto LB agar plates containing 50 μg/mL kanamycin (to select for pZE21 transformants) and incubated at 37° C. for 16 h. The insert size distribution for each library was characterized by gel electrophoresis of amplicons obtained using primers flanking the HincII site in the multiple cloning site of pZE21 MCS1. The total size of each library was estimated by multiplying average insert size by the number of cfu in a given library. The remainder of the recovered cells was inoculated into 10 mL LB containing 50 μg/mL kanamycin and grown overnight, with shaking, at 27° C. for ˜16 h. The culture subsequently was diluted with an equal volume of LB medium containing 30% glycerol and stored at −80° C. before screening.
For functional selections, 100 μL of each library freezer stock (corresponding to 0.5-1×10^8 cfu) was plated on an LB agar plate containing kanamycin (50 μg/mL) plus one of 15 different antibiotics (Table 3). The total number of cells plated on each antibiotic represented ˜10 copies of each original unique transformant. Antibiotic-resistant colonies were scored after plates had been incubated at 37° C. for 16 h. Inserts contained in colonies with amikacin-, piperacillin- and piperacillin/tazobactam-resistant phenotypes were subjected to bidirectional Sanger sequencing (Beckman Coulter Genomics) using primers pZE21—81—104—57C (5′-[…] GGT-3′; SEQ ID NO 5) and pZE21—151—174rc—58C (5′-[…]-3′; SEQ ID NO 6). Resulting reads were trimmed to remove low-quality and vector sequences and subjected to within-library contig assembly (≧200 bp of 97% ID sequence required). Contigs and unassembled reads were mapped by BLAST to the National Center for Biotechnology Information (NCBI) nonredundant database and to a custom database of 122human gutmicrobial genomes. All sequence datasets have been deposited in the NCBI Sequence Read Archive (SRA) under accession no. […]

On to `O=C(N[C@H](CO)[C@H](O)c1ccc([N+](=O)[O-])cc1)C(Cl)Cl` [Cloramphenicol], for which the “MIC” value was determined as 8000 µg/mL.
Consider `CN(C)[C@@H]1C(O)=C(C(N)=O)C(=O)[C@@]2(O)C(O)=C3C(=O)c4c(O)cccc4[C@@](C)(O)[C@H]3[C@H](O)[C@@H]12` [Oxytetracyline], for which the minimum inhibitory concentration (MIC) was 8000 µg/mL.
With `CN(C)[C@@H]1C(=O)C(C(N)=O)=C(O)[C@@]2(O)C(=O)C3=C(O)c4c(O)cccc4[C@@](C)(O)[C@H]3C[C@@H]12` [Tetracyline], the “MIC” value stood at 8000 µg/mL.
As for Gentamicin, the minimal inhibitory concentration (MIC) is 16000 µg/mL.
On to Penicillin, for which the “MIC” value was 128000 µg/mL.
Regarding Piperacillin + Tazobactam, the “MIC (mg/mL), PI of PI + TZ” value (piperacillin part of the combination) is 16 mg/mL. For the same compound, where the note is “tazobactam part of the combination”, the “MIC (mg/mL), TZ of PI + TZ” value is 4 mg/mL.
On to Trimethoprim + Sulfamethoxazole, for which the “MIC (mg/mL), SX of TR + SX” value (sulfamethoxazole part of the combination) was found to be 38 mg/mL. The “MIC (mg/mL), TR of TR + SX” value (trimethoprim part of the combination) came out at 2 mg/mL.
